US20030162824A1, “Methods of treating or preventing a cardiovascular condition using a cyclooxygenase-1 inhibitor” (priority 2001, published 2003)
Where “and” joins values, the source holds several entries; their conditions need not be identical. Equal entries are not always repeated.

What was measured:
[1] = biological target: T1, hCox-2 (Homo sapiens, UniProt P35354); experiment: Evaluation of COX-2 activity in vitro (recombinant enzyme, PGE2 ELISA); format: biochemical
T1 construct: A 2.0 kb fragment containing the coding region of either human or murine COX-1 or human or murine COX-2; made in house; host or cells: SF9 insect cells (baculovirus, pVL1393)
T1 sequence (P35354 18-604): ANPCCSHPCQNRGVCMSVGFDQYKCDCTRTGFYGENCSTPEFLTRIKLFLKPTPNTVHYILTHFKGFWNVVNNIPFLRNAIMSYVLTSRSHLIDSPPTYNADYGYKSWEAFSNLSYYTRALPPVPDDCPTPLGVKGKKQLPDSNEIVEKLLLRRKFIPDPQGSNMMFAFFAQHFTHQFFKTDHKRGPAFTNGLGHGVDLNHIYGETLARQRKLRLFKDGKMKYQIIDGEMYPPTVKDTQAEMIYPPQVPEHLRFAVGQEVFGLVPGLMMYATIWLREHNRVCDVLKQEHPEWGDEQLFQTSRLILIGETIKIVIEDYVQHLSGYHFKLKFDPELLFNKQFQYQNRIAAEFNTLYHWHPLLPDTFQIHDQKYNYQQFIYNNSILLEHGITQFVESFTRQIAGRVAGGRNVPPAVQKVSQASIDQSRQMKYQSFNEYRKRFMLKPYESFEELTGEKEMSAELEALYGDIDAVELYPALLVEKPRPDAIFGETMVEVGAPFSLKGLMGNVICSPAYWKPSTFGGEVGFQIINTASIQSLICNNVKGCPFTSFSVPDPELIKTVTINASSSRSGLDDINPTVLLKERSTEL
Procedure: (§1) Recombinant baculoviruses were isolated by transfecting 4 μg of baculovirus transfer vector DNA into SF9 insect cells (2×10^8) along with 200 ng of linearized baculovirus plasmid DNA by the calcium phosphate method.
(§2) Recombinant viruses were purified by three rounds of plaque purification and high titer (10^7-10^8 pfu/mL) stocks of virus were prepared. For large scale production, SF9 insect cells were infected in 10 liter fermentors (0.5×10^6/mL) with the recombinant baculovirus stock such that the multiplicity of infection was 0.1. […] The homogenate was centrifuged at 10,000×G for 30 minutes, and the resultant supernatant was stored at −80° C. before being assayed for COX activity.
(§3) COX activity was assayed as PGE2 formed/μg protein/time using an ELISA to detect the prostaglandin released. CHAPS-solubilized insect cell membranes containing the appropriate COX enzyme were incubated in a potassium phosphate buffer (50 mM, pH 8.0) containing epinephrine, phenol, and heme with the addition of arachidonic acid (10 μM). Compounds were pre-incubated with the enzyme for 10-20 minutes prior to the addition of arachidonic acid. […] The PGE2 formed was measured by standard ELISA technology (Cayman Chemical).

[2] = biological target: T2, hCox-1 (Homo sapiens, UniProt P23219); experiment: Evaluation of COX-1 activity in vitro (recombinant enzyme, PGE2 ELISA); format: biochemical
T2 construct: A 2.0 kb fragment containing the coding region of either human or murine COX-1 or human or murine COX-2; made in house; host or cells: SF9 insect cells (baculovirus, pVL1393)
T2 sequence (P23219 24-599): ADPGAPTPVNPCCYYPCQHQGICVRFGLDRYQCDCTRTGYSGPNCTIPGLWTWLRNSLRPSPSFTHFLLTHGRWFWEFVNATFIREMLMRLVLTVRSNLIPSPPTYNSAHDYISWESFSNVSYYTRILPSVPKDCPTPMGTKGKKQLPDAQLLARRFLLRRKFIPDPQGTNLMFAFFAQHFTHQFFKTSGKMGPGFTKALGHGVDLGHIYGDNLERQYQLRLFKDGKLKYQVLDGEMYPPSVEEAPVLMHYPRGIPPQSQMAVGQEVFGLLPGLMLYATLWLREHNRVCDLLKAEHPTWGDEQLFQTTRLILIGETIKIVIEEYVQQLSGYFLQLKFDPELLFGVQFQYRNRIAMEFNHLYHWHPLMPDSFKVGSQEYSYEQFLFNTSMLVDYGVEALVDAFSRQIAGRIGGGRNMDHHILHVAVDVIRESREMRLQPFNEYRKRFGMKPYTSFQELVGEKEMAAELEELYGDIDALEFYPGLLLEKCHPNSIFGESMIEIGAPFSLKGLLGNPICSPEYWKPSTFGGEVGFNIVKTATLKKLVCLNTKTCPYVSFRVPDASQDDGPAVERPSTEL
Procedure: as §1, §2, §3

[3] = system: apoE knockout mice fed a 1% cholesterol diet; experiment: Effect of cyclooxygenase inhibition on the development of atherosclerosis in cholesterol-fed apoE knockout mice; conditions: for extent of lesion development: aortae after 10 weeks, vehicle 25.8±4.5%
Procedure: The role of cyclooxygenase-1 and cyclooxygenase-2 on the development of atherosclerosis in apoE knockout mice fed a 1% cholesterol diet was evaluated. […] ApoE^−/− fed a normal chow (n=20) and wildtype littermates (n=40) were used as controls for the study. Twenty-four hour urine samples were collected and the aortae harvested following 10 weeks of treatment.

[4] = 10 weeks, COX-1 inhibitor 15 mg/kg daily, COX-2 inhibitor 6 mg/kg
[5] = COX-1 inhibitor 15 mg/kg daily, COX-2 inhibitor 6 mg/kg

IC50 [1] [µM] | IC50 [2] | SMILES | further results
22.8 | 0.647 µM | O=[N+]([O-])c1ccc(-c2cc(C(F)F)nn2-c2ccc(F)cc2)cc1 [Compound 21] | –
> 100 | 0.65 µM | FC(F)(F)c1cc(-c2ccc(I)cc2)n(-c2ccccc2)n1 [Compound 15, 5-(4-iodophenyl)-1-phenyl-3-(trifluoromethyl)pyrazole] | –
67.1 | 0.287 µM | COc1ccc(-c2cc(C(F)(F)F)nn2-c2ccc(C)cc2)cc1C [Compound 31] | –
> 100 | 55.7 µM | COc1ccc(-n2nc(C(=O)O)cc2-c2ccc(Cl)cc2)cc1 [Compound 4, 3-carboxy-5-(4-chlorophenyl)-1-(4-methoxyphenyl)pyrazole] | –
– | 0.242 µM | COc1ccc(-n2nc(CO[N+](=O)[O-])cc2-c2ccc(Cl)cc2)cc1 [Compound 29] | –
> 100 | 0.442 µM | COC(=O)c1nn(-c2ccc(OC)cc2)c2c1CCc1cc(OC)ccc1-2 [Compound 18] | –
> 100 | 0.81 µM | O=[N+]([O-])c1ccc(-n2nc(C(F)(F)F)cc2-c2ccc(Cl)cc2)cc1 [Compound 22] | –
> 100 | < 0.137 µM and 0.021 µM | COc1ccc(-n2nc(C(F)F)cc2-c2ccc(Cl)cc2)cc1 [Compound 2, 5-(4-chlorophenyl)-3-(difluoromethyl)-1-(4-methoxyphenyl)pyrazole] | –
– | ≤ 0.137 µM | NS(=O)(=O)c1ccc(-n2nc(C(=O)O)cc2-c2ccccc2)cc1 [Compound 24] | –
> 1000 | 0.085 µM | FC(F)(F)c1cc(-c2ccccc2)n(-c2ccc(Cl)cc2)n1 [Compound 7, 1-(4-chlorophenyl)-5-phenyl-3-(trifluoromethyl)pyrazole] | –
> 500 | 0.435 µM | FC(F)(F)c1cc(-c2ccc(Br)cc2)n(-c2ccccc2)n1 [Compound 12, 5-(4-bromophenyl)-1-phenyl-3-(trifluoromethyl)pyrazole] | –

More lines, now with the values behind:

SMILES | IC50 [1] [µM] | IC50 [2] | further results
COC(=O)c1ccc(-n2nc(C(F)(F)F)cc2-c2ccc(C)cc2)cc1 [Compound 26] | > 100 | 0.31 µM | –
COc1ccc(-n2nc(C(F)F)cc2-c2ccc(SC)cc2)cc1 [Compound 19] | > 100 | 0.126 µM | –
FC(F)(F)c1cc(-c2cccc(Br)c2)n(-c2ccccc2)n1 [Compound 13] | > 100 | 3.3 µM | –
COc1ccc2c(c1)CSc1c(C(F)(F)F)nn(-c3ccc(Cl)cc3)c1-2 [Compound 27] | > 100 | 0.141 µM | –
O=[N+]([O-])c1ccc(-n2nc(C(F)F)cc2-c2ccc(Cl)cc2)cc1 [Compound 23] | > 100 | 0.676 µM | –
COc1ccc(-c2cc(C(F)F)nn2-c2ccc(Cl)cc2)cc1F [Compound 28] | 23 | 0.643 µM | –
COC(=O)c1cc(-c2ccc(Cl)cc2)n(-c2ccc(OC)cc2)n1 [Compound 3, 5-(4-chlorophenyl)-3-(methoxycarbonyl)-1-(4-methoxyphenyl)pyrazole] | > 100 | 0.284 µM | –
COc1ccc(-n2nc(C(=O)Nc3ccc(N=[N+]=[N-])cc3)cc2-c2ccc(Cl)cc2)cc1 [Compound 32] | ≥ 1000 | 0.012 µM | –
Cc1ccc(-c2cc(C(F)(F)F)nn2-c2ccc(C(F)(F)F)cc2)cc1 [Compound 30] | > 100 | 0.108 µM | –
NS(=O)(=O)c1ccc(-n2nc(C(F)(F)F)cc2-c2ccc(Cl)cc2)cc1 [selective COX-2 inhibitor, 4-[5-(4-chlorophenyl)-3-(trifluoromethyl)-1H-pyrazol-1-yl]benzenesulfonamide, reference compound] | – | – | CD41 staining of lesions (platelet deposition) [3, 4]: no effect; effect on TXB2 excretion (in words) ([3]; 10 weeks, COX-2 inhibitor 6 mg/kg): no effect; extent of lesion development [3, 5]: 27.9±1.8%
FC(F)(F)c1cc(-c2ccc(Cl)cc2)n(-c2ccccc2)n1 [Compound 9, 5-(4-chlorophenyl)-1-phenyl-3-(trifluoromethyl)pyrazole] | > 1000 | 0.123 µM | –
Cc1ccc(-c2cc(C(F)(F)F)nn2-c2ccc(Br)cc2)cc1 [Compound 16, 1-(4-bromophenyl)-5-(4-methylphenyl)-3-(trifluoromethyl)pyrazole] | 0.424 | < 0.137 µM | –
COc1ccc(-n2nc(C(F)(F)F)cc2-c2ccc(Cl)cc2)cc1 | – | – | CD41 staining of lesions (platelet deposition) [3, 4]: markedly attenuated
COc1ccc(-n2nc(C(F)(F)F)cc2-c2ccc(Cl)cc2)cc1 [Compound 1] | – | – | Urinary TXB2 excretion ([3]; 24 h urine after 10 weeks of treatment, COX-1 inhibitor 15 mg/kg daily, vehicle 20.7±4.02): 2.63 ± 0.59 ng/mL; extent of lesion development [3, 5]: 4.6±0.4%
COc1ccc(-n2nc(CCC(=O)N(C)O)cc2-c2ccc(Cl)cc2)cc1 [Compound 20] | > 1000 | 0.027 µM | –
